Activity and T/C data for 13 compounds are collected here from ChEMBL document CHEMBL3228046, “A structural modification study of procarbazine” (1979).

Active and inactive are the calls of the source. The calls are words filed in the database; no cut-off is given here.

The test system of assay [1] is P388. Briefly: Antineoplastic activity against mouse P388 cells allografted in BDF1 mouse administered qd for 1 to 9 days starting 24 hrs after tumor cell implantation. Type of assay: functional, cell-based.
A further assay relates to KB. The assay can be described thus: Antineoplastic activity against human KB cells. Type of assay: functional, cell-based.
In assay [2] the test system is L1210. The assay can be described thus: Antineoplastic activity against mouse L1210 cells allografted in BDF1 mouse administered qd for 1 to 9 days starting 24 hrs after tumor cell implantation. Type of assay: functional, cell-based.
Assay [3] relates to P388. Briefly: Antineoplastic activity against mouse P388 cells allografted in BDF1 mouse at 800 mg/kg administered qd for 1 to 9 days starting 24 hrs after tumor cell implantation relative to control. Type of assay: functional.
Assay [4] concerns L1210. Briefly: Antineoplastic activity against mouse L1210 cells allografted in BDF1 mouse at 50 mg/kg administered qd for 1 to 9 days starting 24 hrs after tumor cell implantation relative to control. Type of assay: functional.

Consider `CC(C)NC(=O)c1ccc(CON(C)C(=O)OCc2ccccc2)cc1`, for which the outcome in the assay on P388 [1], with KB and with L1210 [2] was inactive.

Regarding `CC(C)NC(=O)c1ccc(CONC(=O)OCc2ccccc2)cc1`, the outcome with P388 [1], with KB and in the assay on L1210 [2] was inactive.

Regarding `CNNCc1c[nH]c(=O)[nH]c1=O`, the outcome in the assay with P388 [1], with KB and in the assay on L1210 [2] was inactive.

`CC(C)NC(=O)c1ccc(CBr)cc1`: the outcome with KB was Active.

The compound `CC(C)NC(=O)c1ccc(C/[N+]([O-])=C/c2ccccc2)cc1` returned a T/C with P388 [3] of 153.

As for `CO/[N+](=C\c1ccccc1)Cc1ccc(C(=O)NC(C)C)cc1`, the outcome in the assay with P388 [1], with KB and in the assay with L1210 [2] was inactive.

With `CNNCc1ccc(/C=N/NC(N)=S)cc1`, the result with P388 [1], with KB and in the assay with L1210 [2] was inactive.

Consider `CONCc1ccc(C(=O)NC(C)C)cc1`, for which the result in the assay with P388 [1], in the assay with KB and in the assay with L1210 [2] was inactive.

Turning to `CNC(=S)NCc1ccc(C(=O)NC(C)C)cc1`, the result with P388 [1], in the assay with KB and with L1210 [2] was inactive.

In the case of `CNC(=S)Nc1ccc(C(=O)NC(C)C)cc1`, the outcome in the assay with P388 [1], with KB and with L1210 [2] was inactive.

Consider `CNC(=O)Nc1ccc(C(=O)NC(C)C)cc1`, for which the T/C in the assay on L1210 [4] was 132.

With `CNC(=O)NCc1ccc(C(=O)NC(C)C)cc1`, the outcome in the assay with P388 [1], in the assay on KB and in the assay on L1210 [2] was inactive.

For the compound `CNOCc1ccc(C(=O)NC(C)C)cc1`, the result in the assay with P388 [1], with KB and with L1210 [2] was inactive.
